From patent US20250296988A1, “COMBINATION THERAPY” (ViiV Healthcare Company, priority 2020, published 2025)

Assays:
HIV-1NL4-3 = assay: Two-drug combination anti-HIV cytoprotection assay in MT-4 cells (MTS endpoint, MacSynergy II analysis); type: cell-based
Method: Provided below is an evaluation of the anti-HIV-1 activity and cytotoxicity of N6LS in two drug combination studies with Cabotegravir. N6LS was produced using standard methods described in the art. Stock solutions were prepared as listed in Table 4 and were thawed at room temperature on each day of assay setup to generate fresh working drug dilutions that were used that day in the assays. Working dilutions were not stored for re-use in subsequent experiments performed on different days. For each combination assay, N6LS was evaluated using a 20 nM high-test concentration with seven additional serial half-log dilutions. Each dilution of N6LS was tested in combination with five dilutions of the anti-HIV drug, Cabotegravir. In all cases the final DMSO concentration was <0.25%, which has been previously shown to have no effect in the described assays.
For cell preparation, MT-4 cells (obtained from the NIH AIDS Research and Reference Reagent Program) were passaged in T-75 flasks prior to use in the antiviral assay. On the day preceding the assay, the cells were split 1:2 to assure they were in an exponential growth phase at the time of infection. Total cell and viability quantification were performed using a hemacytometer and trypan blue exclusion. Cell viability needed to be greater than 95% for the cells to be utilized in the assay. The cells were re-suspended in tissue culture medium and added to the drug-containing microtiter plates in a volume of 110 μL and at a seeding density of 5.0×10^3 cells/well.
For virus preparation, the virus used for these tests was the CXCR4-tropic virus strain HIV-1NL4-3. This virus was obtained from the NIH AIDS Research and Reference Reagent Program and was grown in MT-4 cells for the production of stock virus pools. For each assay, a pre-titered aliquot of virus was removed from the freezer (−80° C.) and allowed to thaw slowly to room temperature in a biological safety cabinet. The virus was re-suspended and diluted into tissue culture medium such that the amount of virus added to each well, in a volume of 50 μL, was the amount determined to give between 85 to 95% cell-killing at 6 days post infection.
For Plate Format, a checkerboard plate format was used to test five concentrations of Cabotegravir with eight concentrations of N6LS. Combination antiviral efficacy was evaluated on three identical assay plates (i.e., triplicate measurements) that included cell control wells (cells only) and virus control wells (cells plus virus). Combination cytotoxicity was evaluated in parallel on two identical assay plates (i.e., duplicate measurements) that included cell control wells. Antiviral efficacy and cellular toxicity were monitored by MTS staining at the experimental endpoint.
For MTS Endpoint for cell viability, at assay termination, the soluble tetrazolium-based dye MTS (CellTiter 96 Reagent, Promega) was added to each well to determine cell viability and quantify compound toxicity. MTS is metabolized by the mitochondria enzymes of metabolically active cells to yield a soluble formazan product, allowing the rapid quantitative analysis of cell viability and compound cytotoxicity. […] At termination of the assay, 20 μL of MTS reagent was added per well and the microtiter plates were then incubated for 3-4 hours at 37° C., 5% CO2 for the HIV cytoprotection assay; the incubation intervals were chosen based on empirically determined times for optimal MTS reduction. Adhesive plate sealers were used in place of the lids, the sealed plates were inverted several times to mix the soluble formazan product and the plates were read spectrophotometrically at 490/650 nm with a Molecular Devices SpectraMax i3 plate reader.
Combination antiviral assays were performed with MT-4 cells utilizing HIV-1NL4-3, as described above. For each combination assay, five concentrations of Cabotegravir were tested with eight concentrations of N6LS. […]

[1] = system: broad range of HIV-1 strains; details: cited from earlier work
[2] = in combination with N6LS, 95% confidence values, experiment 1
[3] = in combination with N6LS, 95% confidence values, experiment 2
[4] = in combination with N6LS, 95% confidence values, experiment 3
[5] = in combination with N6LS, 95% confidence values, n = 3

## C[C@H]1CO[C@@H]2Cn3cc(C(=O)NCc4ccc(F)cc4F)c(=O)c(O)c3C(=O)N12 [Cabotegravir, N-((2,4-Difluorophenyl)methyl)-6-hydroxy-3-methyl-5,7-dioxo-2,3,5,7,11,11a hexahydro (1,3) oxazolo (3,2-a)pyrido (1,2-d) pyrazine-8-carboxamide]
HIV-1NL4-3; combination of N6LS with Cabotegravir
  Drug-drug interaction of the combination: mainly synergistic or additive interactions
HIV-1NL4-3; [2]
  Antagonism Volume, Result 1: −45.27 nM^2%
  Synergy Volume, Result 1: 2.32 nM^2%
HIV-1NL4-3; [3]
  Antagonism Volume, Result 2: 0 nM^2%
  Synergy Volume, Result 2: 187.5 nM^2%
HIV-1NL4-3; [4]
  Antagonism Volume, Result 3: −39.56 nM^2%
  Synergy Volume, Result 3: 61.7 nM^2%
HIV-1NL4-3; [5]
  Mean Antagonism Volume: −28.28 nM^2
  Mean Synergy Volume: 83.84 nM^2
[1]
  potency and antiviral activity: subnanomolar potency
